Here are results for twelve molecules from patent publication US12180207B2 (ARRAY BIOPHARMA INC., priority 2018, dated 2024).

Structures are written as SMILES.

Test [1] has as its target dephosphorylated FGFR1 (SEQ ID NO: 1, amino acids 458 to 765) (Homo sapiens (Human), UniProt P11362). As to the kind of experiment: FGFR enzyme binding assay (HTRF tracer displacement), FGFR1. Conditions: 5 nM dephosphorylated FGFR1, average of multiple determinations if made. Put shortly: (§1)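 Kinase and tracer were incubated with compound for 60 minutes at 22° C. Tracer displacement was then measured by HTRF, and results were expressed as POC with 1 μM control inhibitor defining full displacement.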
For orientation: Time-resolved FRET reads energy transfer from a long-lived donor to a nearby acceptor.

Test [2] addresses phosphorylated FGFR3 (SEQ ID NO: 5, amino acids 449 to 759) (Homo sapiens (Human), UniProt P22607). Put plainly: FGFR enzyme binding assay (HTRF tracer displacement), FGFR3. Conditions: 5 nM phosphorylated FGFR3, average of multiple determinations if made. In outline:
as §1

In test [3] the target is recombinant human FGFR1 catalytic domain (amino acids 308-731) (Homo sapiens (Human), UniProt P11362). Put plainly: FGFR1 enzyme activity assay (LanthaScreen TR-FRET). It counts as biochemical. Conditions: 20 min incubation at 22° C., average of multiple determinations if made, read-out: FGFR1 Enz FRET IC50. Put shortly:
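His-tagged FGFR1 kinase domain with 100 nM Alexa Fluor 647-poly-GT peptide and ATP in pH 7.5 HEPES/MgCl2 buffer with 2% DMSO, 20 min at 22 °C. Quenched with EDTA plus 2 nM Eu-PY20 antibody and read after 60 min. IC50 comes from a 4-parameter fit of percent of control.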

For test [4], the target named is recombinant human FGFR2 cytoplasmic domain (amino acids 403-822) (Homo sapiens (Human), UniProt P21802). Put plainly: FGFR2 enzyme activity assay (LanthaScreen TR-FRET). It counts as biochemical. The settings on record: 15 μM ATP, 20 min incubation at 22° C., average of multiple determinations if made, read-out: FGFR2 Enz FRET IC50. In outline:
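Substrate phosphorylation was read by TR-FRET using Eu-PY20 antibody (60 min, 22 °C) after a 20 min, 22 °C reaction. The reaction used 15 μM ATP, 100 nM fluorescent poly-GT peptide and His-tagged FGFR2 403-822 ([…]) at pH 7.5 with 2% DMSO.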

The target of test [5] is recombinant human FGFR3 (amino acids R397-T806) (Homo sapiens (Human), UniProt P22607). Put plainly: FGFR3 enzyme activity assay (LanthaScreen TR-FRET). It counts as biochemical. Conditions: 25 μM ATP, 10 min incubation at 22° C., average of multiple determinations if made, read-out: FGFR3 Enz FRET IC50. In outline:
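GST-HIS6-tagged human FGFR3 (R397-T806) was reacted with 100 nM Alexa Fluor 647-Poly-GT substrate and 25 μM ATP plus compound in HEPES/MgCl2/Triton buffer, pH 7.5, 2% DMSO, for 10 min at 22 °C.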

Test [6] addresses FGFR1 (SEQ ID NO: 1, amino acids 458-765) (Homo sapiens (Human), UniProt P11362). As to the kind of experiment: LC/MS FGFR1 kobs assay (covalent protein modification). It counts as binding. Conditions: 500 nM FGFR1, 3 μM compound. How it is done:
The LC/MS FGFR1 and FGFR3 kobs assays were conducted as follows. […] At each time point, the reaction was quenched with 20 μL of 0.4% formic acid. The extent of protein modification by each compound was determined by LC/MS on an Agilent Technologies 6520 Q-TOF LC/MS. Protein signals were then automatically deconvoluted using Agilent Masshunter software. Deconvoluted mass signals were exported to Tibco Spotfire data analysis program for further processing and normalization.
Data analysis included five steps. First, the signals for the “DMSO Controls” were analyzed to determine the percent of signal associated with unmodified FGFR1 or FGFR3 at each time point. Next, the percent of the signal associated with the covalent modification was determined. Third, the average nonmodified “DMSO Control” signal was used to normalize the modified protein signals at each time point. The percent of unmodified protein was fit to an exponential decay model where A0 is the Percent Unmodified at the start of the reaction, and kobs is the observed rate constant over the time period.

For test [7], the target named is FGFR3 (SEQ ID NO: 5, amino acids 449-759) (Homo sapiens (Human), UniProt P22607). Put plainly: LC/MS FGFR3 kobs assay (covalent protein modification). It counts as binding. Conditions: 500 nM FGFR3, 3 μM compound. In outline:
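Samples are acid-quenched at set times and read by Q-TOF mass spectrometry. kobs is obtained by fitting DMSO-normalized percent unmodified protein to an exponential decay model.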

Chain of phosphorylated FGFR3 (SEQ ID NO: 5, amino acids 449 to 759) (P22607 449-759): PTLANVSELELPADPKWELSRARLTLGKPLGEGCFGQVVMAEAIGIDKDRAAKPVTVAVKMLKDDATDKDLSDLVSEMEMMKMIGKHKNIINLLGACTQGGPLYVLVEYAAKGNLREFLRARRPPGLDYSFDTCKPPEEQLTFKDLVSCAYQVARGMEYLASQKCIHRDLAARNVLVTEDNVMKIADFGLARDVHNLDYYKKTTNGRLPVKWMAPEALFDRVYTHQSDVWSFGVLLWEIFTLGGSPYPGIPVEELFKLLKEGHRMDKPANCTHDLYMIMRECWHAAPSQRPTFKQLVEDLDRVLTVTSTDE
Chain of FGFR3 (SEQ ID NO: 5, amino acids 449-759) (P22607 449-759): as above
Chain of recombinant human FGFR2 cytoplasmic domain (amino acids 403-822) (P21802 402-821): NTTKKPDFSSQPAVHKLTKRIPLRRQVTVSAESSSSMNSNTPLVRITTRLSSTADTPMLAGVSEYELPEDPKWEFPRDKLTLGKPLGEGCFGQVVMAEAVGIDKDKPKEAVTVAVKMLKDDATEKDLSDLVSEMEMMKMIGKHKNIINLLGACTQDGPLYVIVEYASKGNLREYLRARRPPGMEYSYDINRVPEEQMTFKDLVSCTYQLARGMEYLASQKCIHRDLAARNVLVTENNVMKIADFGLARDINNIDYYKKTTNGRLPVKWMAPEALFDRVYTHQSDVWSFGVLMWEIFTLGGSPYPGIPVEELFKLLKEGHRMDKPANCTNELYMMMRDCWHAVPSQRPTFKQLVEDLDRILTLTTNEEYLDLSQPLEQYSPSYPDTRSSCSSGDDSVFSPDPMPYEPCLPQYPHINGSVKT
Chain of recombinant human FGFR1 catalytic domain (amino acids 308-731) (P11362 other isoform, or with tags, fused parts or gaps): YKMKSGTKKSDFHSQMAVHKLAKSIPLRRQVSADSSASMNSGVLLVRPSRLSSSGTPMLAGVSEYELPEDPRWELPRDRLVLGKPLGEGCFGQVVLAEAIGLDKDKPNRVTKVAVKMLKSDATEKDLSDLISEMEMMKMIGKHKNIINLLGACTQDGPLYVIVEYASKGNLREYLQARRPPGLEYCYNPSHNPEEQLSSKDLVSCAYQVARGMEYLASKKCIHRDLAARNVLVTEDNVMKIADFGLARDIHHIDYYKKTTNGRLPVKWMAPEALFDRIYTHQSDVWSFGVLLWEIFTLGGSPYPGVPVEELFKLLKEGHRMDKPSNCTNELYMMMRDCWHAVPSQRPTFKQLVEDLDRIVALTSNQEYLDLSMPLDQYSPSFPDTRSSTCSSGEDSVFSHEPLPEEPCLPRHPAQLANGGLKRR
Chain of recombinant human FGFR3 (amino acids R397-T806) (P22607 397-806): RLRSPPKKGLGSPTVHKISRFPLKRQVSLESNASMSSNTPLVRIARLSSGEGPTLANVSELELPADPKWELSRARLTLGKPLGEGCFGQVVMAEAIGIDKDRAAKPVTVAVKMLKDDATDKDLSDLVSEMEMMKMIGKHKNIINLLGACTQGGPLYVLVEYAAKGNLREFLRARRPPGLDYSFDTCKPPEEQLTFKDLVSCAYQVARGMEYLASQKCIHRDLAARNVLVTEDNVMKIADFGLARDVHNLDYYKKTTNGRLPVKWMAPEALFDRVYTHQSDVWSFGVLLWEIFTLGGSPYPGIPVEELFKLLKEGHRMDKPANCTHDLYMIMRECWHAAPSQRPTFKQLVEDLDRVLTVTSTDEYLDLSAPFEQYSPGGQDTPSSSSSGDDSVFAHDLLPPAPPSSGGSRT
Chain of dephosphorylated FGFR1 (SEQ ID NO: 1, amino acids 458 to 765) (P11362 458-765): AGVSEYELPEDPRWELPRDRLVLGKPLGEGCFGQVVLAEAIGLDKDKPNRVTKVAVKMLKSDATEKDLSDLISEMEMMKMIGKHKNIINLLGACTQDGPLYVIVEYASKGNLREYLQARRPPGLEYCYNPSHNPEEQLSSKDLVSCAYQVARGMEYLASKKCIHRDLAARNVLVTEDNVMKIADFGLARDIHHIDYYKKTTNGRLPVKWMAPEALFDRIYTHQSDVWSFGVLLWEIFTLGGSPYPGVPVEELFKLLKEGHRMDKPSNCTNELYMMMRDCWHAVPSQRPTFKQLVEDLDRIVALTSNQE
Chain of FGFR1 (SEQ ID NO: 1, amino acids 458-765) (P11362 458-765): as above

In general, IC50 refers to the point on the concentration scale where inhibition reaches its midpoint. Regarding `C=CC(=O)N1CC[C@@H](C(=O)N2CC[C@@H](n3cc(-c4cc(OC)c5c(C#N)cnn5c4)cn3)C2)C1` [Example 58, 6-(1-((R)-1-((R)-1-acryloylpyrrolidine-3-carbonyl)pyrrolidin-3-yl)-1H-pyrazol-4-yl)-4-methoxypyrazolo[1,5-a]pyridine-3-carbonitrile], the IC50 in test [1] was 290 nM; in test [2], 41 nM; in test [3], 55 nM; in test [4], 8 nM; in test [5], 8 nM. In addition, in test [6], the “FGFR1 Enz kobs” value stood at 0.00058 min⁻¹. Further, in test [7], the “FGFR3 Enz kobs” value is 0.00158 min⁻¹.

`C=CC(=O)N1CCC[C@H](C(=O)N2CC[C@H](n3cc(-c4cc(OC)c5c(C#N)cnn5c4)cn3)C2)C1` [Example 63, 6-(1-((S)-1-((S)-1-acryloylpiperidine-3-carbonyl)pyrrolidin-3-yl)-1H-pyrazol-4-yl)-4-methoxypyrazolo[1,5-a]pyridine-3-carbonitrile]: the IC50 in test [1] came out at 199 nM; in test [2] it was 62 nM; in test [3] it was 26 nM; in test [4], 7 nM; in test [5], 3 nM. Also, in test [6], the “FGFR1 Enz kobs” value amounted to 0.0005 min⁻¹. Moreover, the “FGFR3 Enz kobs” value in test [7] was 0.0013 min⁻¹.

For the molecule `C=CC(=O)Nc1cccc(C(=O)N2CC[C@H](n3cc(-c4cc(OC)c5c(C#N)cnn5c4)cn3)C2)c1` [Example 67, (S)-N-(3-(3-(4-(3-cyano-4-methoxypyrazolo[1,5-a]pyridin-6-yl)-1H-pyrazol-1-yl)pyrrolidine-1-carbonyl)phenyl)acrylamide], the IC50 turned out to be 47 nM in test [1]; 12 nM in test [2]; 8 nM in test [3]; 3 nM in test [4]; 5 nM in test [5]. Also, the “FGFR1 Enz kobs” value in test [6] turned out to be 0.00146 min⁻¹. Besides, the “FGFR3 Enz kobs” value in test [7] was determined as 0.00341 min⁻¹.

Consider `C=CC(=O)N1CC[C@@H](C(=O)N2CC[C@H](n3cc(-c4cc(OC)c5c(C#N)cnn5c4)cn3)C2)C1` [Example 72, 6-(1-((S)-1-((R)-1-acryloylpyrrolidine-3-carbonyl)pyrrolidin-3-yl)-1H-pyrazol-4-yl)-4-methoxypyrazolo[1,5-a]pyridine-3-carbonitrile], for which the IC50 in test [1] stood at 36 nM; in test [2], 7 nM; in test [3], 25 nM; in test [4], 5 nM; in test [5], 3 nM. The “FGFR1 Enz kobs” value in test [6] was 0.00049 min⁻¹. Further, the “FGFR3 Enz kobs” value in test [7] was found to be 0.00117 min⁻¹.

For `C=CC(=O)N1CCC(C(=O)N2CC(n3cc(-c4cc(OC)c5c(C#N)cnn5c4)cn3)C2)CC1` [Example 75, 6-(1-(1-(1-acryloylpiperidine-4-carbonyl)azetidin-3-yl)-1H-pyrazol-4-yl)-4-methoxypyrazolo[1,5-a]pyridine-3-carbonitrile], the IC50 came to 120 nM in test [1]; 22 nM in test [2]; 39 nM in test [3]; 14 nM in test [4]; 13 nM in test [5]. For the same molecule, in test [6], the “FGFR1 Enz kobs” value worked out at 0.00081 min⁻¹. For the same molecule, the “FGFR3 Enz kobs” value in test [7] worked out at 0.002 min⁻¹.

For the molecule `C=CC(=O)N[C@H]1C[C@@H](C(=O)N2CC(n3cc(-c4cc(OC)c5c(C#N)cnn5c4)cn3)C2)C1` [Example 80, N-((1s,3s)-3-(3-(4-(3-cyano-4-methoxypyrazolo[1,5-a]pyridin-6-yl)-1H-pyrazol-1-yl)azetidine-1-carbonyl)cyclobutyl)acryl-amide], the IC50 in test [1] came to 174 nM; in test [2], 22 nM; in test [3], 26 nM; in test [4], 7 nM; in test [5], 7 nM. For the same molecule, the “FGFR1 Enz kobs” value in test [6] is 0.00024 min⁻¹. Moreover, the “FGFR3 Enz kobs” value in test [7] was 0.00111 min⁻¹.

`C=CC(=O)N1CCN(c2ccc(-c3cc(OC)c4c(C#N)cnn4c3)cc2)CC1` [Example 99, 6-(4-(4-acryloylpiperazin-1-yl)phenyl)-4-methoxypyrazolo[1,5-a]pyridine-3-carbonitrile]: the IC50 was determined as 47 nM in test [1]; 5 nM in test [2]; 13 nM in test [3]; 5 nM in test [4]; 3 nM in test [5]. In addition, in test [6], the “FGFR1 Enz kobs” value is 0.00044 min⁻¹. Further, in test [7], the “FGFR3 Enz kobs” value was 0.00353 min⁻¹.

For the molecule `C=CC(=O)N1CCC(C(=O)N2CCN(c3ccc(-c4cc(OC)c5c(C#N)cnn5c4)cn3)CC2)CC1` [Example 109, 6-(6-(4-(1-acryloylpiperidine-4-carbonyl)piperazin-1-yl)pyridin-3-yl)-4-methoxypyrazolo[1,5-a]pyridine-3-carbonitrile], the IC50 in test [1] stood at 56 nM; in test [2], 8 nM; in test [3], 12 nM; in test [4], 4 nM; in test [5] it was 6 nM. Further, the “FGFR1 Enz kobs” value in test [6] was determined as 0.0006 min⁻¹. Also, the “FGFR3 Enz kobs” value in test [7] came to 0.00352 min⁻¹.

In the case of `C=CC(=O)N1CC[C@@H](C(=O)N2CCN(c3ccc(-c4cc(OC)c5c(C#N)cnn5c4)cn3)CC2)C1` [Example 110, (R)-6-(6-(4-(1-acryloylpyrrolidine-3-carbonyl)piperazin-1-yl)pyridin-3-yl)-4-methoxypyrazolo[1,5-a]pyridine-3-carbonitrile], the IC50 in test [1] is 58 nM; in test [2], 8 nM; in test [3], 16 nM; in test [4], 5 nM; in test [5], 6 nM. For the same molecule, the “FGFR1 Enz kobs” value in test [6] is 0.00068 min⁻¹. For the same molecule, the “FGFR3 Enz kobs” value in test [7] stood at 0.00626 min⁻¹.

Take `C=CC(=O)N1CC(C(=O)N2CCN(c3ncc(-c4cc(OC)c5c(C#N)cnn5c4)cn3)CC2)C1` [Example 133, 6-(2-(4-(1-acryloylazetidine-3-carbonyl)piperazin-1-yl)pyrimidin-5-yl)-4-methoxypyrazolo[1,5-a]pyridine-3-carbonitrile]: the IC50 in test [1] stood at 2930 nM; in test [2], 160 nM; in test [3], 119 nM; in test [4], 63 nM; in test [5] it was 264 nM. The “FGFR1 Enz kobs” value in test [6] stood at 0.00274 min⁻¹. The “FGFR3 Enz kobs” value in test [7] was 0.02206 min⁻¹.

Turning to `COc1cc(-c2cnn(C3CN(CC4CN(C(=O)/C=C/CN5CCCCC5)C4)C3)c2)cn2ncc(C#N)c12` [Example 149, (E)-4-methoxy-6-(1-(1-((1-(4-(piperidin-1-yl)but-2-enoyl)azetidin-3-yl)methyl)azetidin-3-yl)-1H-pyrazol-4-yl)pyrazolo[1,5-a]pyridine-3-carbonitrile], the IC50 was determined as 229 nM in test [1]; 33 nM in test [2]; 39 nM in test [3]; 6 nM in test [4]; 4 nM in test [5]. The “FGFR1 Enz kobs” value in test [6] stood at 0.00121 min⁻¹. Besides, in test [7], the “FGFR3 Enz kobs” value is 0.00455 min⁻¹.

For `C=CC(=O)NC1CCN(C(=O)c2ccc(-c3cc(OC)c4c(C#N)cnn4c3)cc2)CC1` [Example 165, N-(1-(4-(3-cyano-4-methoxypyrazolo [1,5-a]pyridin-6-yl)benzoyl)piperidin-4-yl)acrylamide], the IC50 in test [1] was found to be 800 nM; in test [2], 223 nM; in test [3], 62 nM; in test [4], 18 nM; in test [5] it was 15 nM. Also, the “FGFR1 Enz kobs” value in test [6] was 0.00005 min⁻¹. The “FGFR3 Enz kobs” value in test [7] was 0.0002 min⁻¹.
